Entries after “also recorded” stand apart in the source; their conditions may differ.
Assays:
[1] = system: H23 lung epithelial cells with ERβ silencing (ERbKD); assay: Cell survival after irradiation with ERβ siRNA knockdown; type: cell-based, human; conditions: lung epithelial cells treated with siRNA to suppress ERβ expression
Description: FIG. 8. H23 lung epithelial cells were transfected with control non-specific siRNAs (CON) or smart-pool ESR2 [ERβ] siRNA for ERβ silencing (ERbKD) as before (31,32); control cells were then treated with or without estradiol (E2) and compared with ERbKD cells treated with estradiol for 2 hrs before irradiation at 0-15 Gy as indicated in the figure (n=3 experiments); surviving cell fractions (%) are plotted on a log scale at increasing radiation doses.
To further assess the role of ERβ as a radioprotector and potential radiation mitigator, lung epithelial cells were treated with small inhibitory RNAs (siRNA) to suppress ERβ expression using established methods (Márquez-Garbán D C, Chen H W, Fishbein M C, Goodglick L, Pietras R J. Steroids. 2007 February; 72(2):135-43. Epub 2007 Feb. 5; Márquez D C, Chen H W, Curran E M, Welshons W V, Pietras R J. Mol Cell Endocrinol. 2006 Feb. 26; 246(1-2):91-100. Epub 2006 Jan. 4). […] Thus, ERβ appears to play a critical role in mediating effects of estrogen post-irradiation.

[2] = system: H23 lung epithelial cells; assay: Cell survival after irradiation (H23 lung epithelial cells); type: cell-based, human; conditions: P<0.001; for lung cell survival post-radiation: H23, pre-treatment before irradiation
Text: (§1) FIGS. 6A-6B. […] 15; 59(6):1347-55).
(§2) ER-selective ligands increase survival of epithelial and endothelial cells post-radiation.

C3H mice = assay: Survival after lethal TBI, C3H mice; type: in vivo; conditions: for lethality and survival after TBI: male C3H mice, 7.725 Gy TBI, DPN 10 mg/kg SC or ERB-041 50 mg/kg oral gavage daily for 5 days starting 24 h after TBI
Text: C3H mice were bred and maintained in a strict defined-flora, pathogen-free environment in the AALAC-accredited animal facilities. The UCLA ARC approved all experiments which were done in accord with all local and national guidelines for care and use of animals. Male mice, 9-10 wks old, received 7.725 Gy TBI from a Gamma Cell 40 irradiator (^137Cs source; Atomic Energy of Canada) at a dose rate of 67 cGy/min. […] Mice were monitored for up to 60 days using standard criteria for humane euthanasia as an endpoint and weights were recorded twice/week.

[3] = system: radiation-damaged reporter DNA in H23 lung cells; assay: Reporter DNA repair assay; type: cell-based, human; conditions: 24 h after transfection, 2 nM E2, 0.5 nM DPN or ERB
Text: FIG. 9. […] 15; 59(6):1347-55); data are from 3 experiments (mean±SEM).

[4] = system: ERβ-EGFR interaction in H23 lung tumor cells; assay: ERβ-EGFR co-immunoprecipitation; type: cell-based, human; conditions: DPN treatment
Description: EGF stimulates ERβ-EGFR interaction in epithelial cells. To assess the idea that ERβ interacts with EGFR to promote cross-talk in signaling, the association of these molecules in co-immunoprecipitation studies was tested in vitro (Márquez D C, Lee J, Lin T, Pietras R J. Endocrine. 2001 November; 16(2):73-81) (FIG. 4).

[5] = system: normal human bronchial epithelial (NHBE) cells; assay: Cell viability after irradiation (NHBE cells); type: cell-based; conditions: 5 nM for 2 h before irradiation (2 Gy), up to 48 h
Text: An additional experiment was done using normal human bronchial epithelial (NHBE) cells (see FIG. 7). […] These collective findings support the underlying hypothesis on the role of ERβ signaling in modulating radiation sensitivity.

lung cells = assay: TUNEL assay of apoptosis after RT; type: cell-based; conditions: E2 10 nM, DPN 1 μM, PPT 1 μM for 2 h, then 15 Gy, TUNEL after 48 h
Text: Cell death is a measurable outcome due to significant radiation injury.

[6] = system: human vascular endothelial cells (HUVEC); assay: Cell survival after irradiation, drug given 24 h after RT (HUVEC); type: cell-based; conditions: for cell survival post-radiation (radiation mitigation): HUVEC, treatment at 24 hours after irradiation, P<0.001
Text: as §1, §2

[7] = system: VEGF secretion by H23 lung epithelial cells; assay: VEGF secretion by ELISA after irradiation; type: cell-based, human; conditions: for VEGF secretion after irradiation: H23, treated 2 hrs before irradiation (10 Gy), ELISA after 24 hrs; for increase in vascular endothelial growth factor (VEGF) secretion: lung epithelial cells pre-treated (E2 2 nM, DPN 5 nM, 2 hrs) before irradiation (10 Gy), P<0.001
C57/BL6 mice = assay: Survival after lethal TBI, C57/BL6 mice; type: in vivo; conditions: male C57/BL6 mice; 8.5 Gy TBI; DPN 10 mg/kg SC or ERB-041 50 mg/kg oral gavage daily for 5 days starting 24 hours after TBI; 30 days
Text: FIG. 15. […] Mice (n=8/group) received 8.5 Gy TBI. […] Controls received appropriate vehicle treatment (e.g. SC [CON SC] or OG [CON OG].
To validate our results above using a different animal model, we used C57/BL6 mice that were also bred and maintained in our AALAC-accredited animal facilities. As above, the UCLA ARC approved all studies. Male mice, 9 weeks-old, in a well-ventilated Lucite chamber without anesthesia received 8.5 Gy TBI from a Gamma Cell 40 irradiator (^137Cs source; Atomic Energy of Canada) at a dose rate of 67 cGy/min. […] Mice were monitored for 30 days using standard criteria for humane euthanasia as an endpoint and weights were recorded twice/week. […] These preliminary findings (FIGS. 14 & 15) provide good evidence to pursue further investigation of ERβ ligands as radiation mitigators.

[8] = system: MDM2 in A549 lung epithelial cells; assay: MDM2 expression by Western blot; type: cell-based, human; conditions: E2 10 nM, DPN or PPT 1 μM for 24 h
Text: Estrogens modulate MDM2 expression in lung cells. MDM2 is well known to bind and inhibit p53 FIG. 3). ERα binds and regulates the MDM2 promoter to stimulate MDM2 expression (see FIG. 12). Indeed, MDM2 SNP309 is reported to occur in an ER binding region of the MDM2 promoter, and affected individuals with SNP309 have increased MDM2 levels mediated by estrogen signaling (33,34).

[9] = system: phospho-serine-1981-ATM (PS-ATM) in A549 cells; assay: RT-induced ATM activation (PS-ATM staining); type: cell-based, human; conditions: treated 2 h, 5 Gy, stained 2 h after radiation, E2 10 nM, DPN/PPT 1 μM
Description: Phosphoryaltion of ATM is a critical first step in cell responses to RT (FIG. 3). Lung cells treated with control or estrogen for 2 hr were then irradiated and examined after 2 h for ATM activation (FIG. 10).

[10] = in vivo; cited from earlier work
[11] = system: sublethally-irradiated mice; conditions: treatment 24 h before RT; cited from earlier work
ERα = molecular target: T1, ERα (Homo sapiens, UniProt P03372); conditions: Harrington et al. 2003; cited from earlier work
T1 sequence (P03372 1-595): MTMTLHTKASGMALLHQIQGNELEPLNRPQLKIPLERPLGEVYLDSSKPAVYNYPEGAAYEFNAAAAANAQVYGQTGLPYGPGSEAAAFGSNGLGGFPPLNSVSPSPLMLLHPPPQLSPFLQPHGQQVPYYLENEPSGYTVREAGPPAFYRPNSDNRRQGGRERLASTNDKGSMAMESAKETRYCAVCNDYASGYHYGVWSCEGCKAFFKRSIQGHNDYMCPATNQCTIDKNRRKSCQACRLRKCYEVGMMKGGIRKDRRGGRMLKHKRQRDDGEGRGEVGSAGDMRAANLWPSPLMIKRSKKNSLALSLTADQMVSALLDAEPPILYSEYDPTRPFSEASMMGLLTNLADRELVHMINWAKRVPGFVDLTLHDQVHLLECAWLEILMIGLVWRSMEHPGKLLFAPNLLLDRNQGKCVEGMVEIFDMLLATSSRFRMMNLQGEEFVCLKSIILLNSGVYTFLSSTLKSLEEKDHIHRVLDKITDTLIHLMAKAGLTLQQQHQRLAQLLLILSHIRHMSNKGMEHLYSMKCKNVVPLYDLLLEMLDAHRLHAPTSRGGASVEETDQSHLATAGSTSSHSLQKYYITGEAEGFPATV

N#CC(Cc1ccc(O)cc1)c1ccc(O)cc1 (stereo not shown) [DPN, 2,3-bis[4-hydroxyphenyl]-propionitrile]
radioprotective / radiation mitigator effect in cells with ERβ knockdown [1]: abolished | lung cell survival post-radiation [2]: dose-dependent increase in lung cell survival post-radiation | effect as a radiation mitigator ([2]; H23 cells, treatment at 24 hrs after irradiation, two experiments): comparable effect as a radiation mitigator | lethality and survival after TBI (C3H mice): protected mice from lethality and improved survival | post-irradiation survival (C3H mice; mouse models in vivo, subcutaneous, treatment started 24 hours after TBI): 100% | post-irradiation time window (C3H mice; radiation mitigator): > 24 h | repair of radiation-damaged reporter DNA [3]: stimulation of enhanced DNA repair after irradiation; also recorded: stimulates repair of radiation-damaged reporter DNA | interaction of ER-beta with EGFR [4]: promotes interaction of ERβ with EGFR; also recorded: promotes interaction of ER-beta with EGFR | cell viability / protection from radiation injury ([5]; P<0.001): protect normal epithelial cells from radiation injury; also recorded: significantly different from control | radiation-induced apoptosis (lung cells): showed efficacy in suppressing radiation-induced apoptosis; also recorded: reduce radiation-induced apoptosis | cell survival post-radiation (radiation mitigation) [6]: mitigates these effects in HUVEC cells | Cell survival ([6]; normal human lung epithelial and vascular endothelial cells in vitro, treatment at 24-hr after irradiation, vs controls P<0.001): significantly improved in a dose-dependent fashion | VEGF secretion after irradiation [7]: stimulate high levels of VEGF secretion | increase in vascular endothelial growth factor (VEGF) secretion [7]: 2 fold | VEGF secretion, treatment after irradiation ([7]; treatment at 24 hours after irradiation (10 Gy), vs controls P<0.001): comparable increase in VEGF secretion; also recorded: significant increase in VEGF secretion | lethality and survival after TBI (C57/BL6 mice): protects mice from lethality and improves survival

C[C@]12CC[C@@H]3c4ccc(O)cc4CC[C@H]3[C@@H]1CC[C@@H]2O [E2, estradiol-17β]
radioprotective / radiation mitigator effect in cells with ERβ knockdown [1]: failed to show a radioprotective effect | repair of radiation-damaged reporter DNA [3]: stimulation of enhanced DNA repair after irradiation | repair of radiation-damaged reporter DNA ([3]; listed as Estrogen): stimulate repair of radiation-damaged reporter DNA | radiation-induced apoptosis (lung cells): showed efficacy in suppressing radiation-induced apoptosis | MDM2 levels [8]: stimulate MDM2 levels | ATM phosphorylation at serine 1981 (nuclear clustering of PS-ATM) after irradiation [9]: increased | VEGF secretion after irradiation [7]: stimulate high levels of VEGF secretion | increase in vascular endothelial growth factor (VEGF) secretion [7]: 2 fold

C=Cc1cc(O)cc2nc(-c3ccc(O)c(F)c3)oc12 [ERB-041, (4Z)-4-(7-ethenyl-5-hydroxy-3H-1,3-benzoxazol-2-ylidene)-2-fluorocyclohexa-2,5-dien-1-one]
lung cell survival post-radiation [2]: dose-dependent increase in lung cell survival post-radiation | lethality and survival after TBI (C3H mice): somewhat less efficacious as a radiation mitigator | repair of radiation-damaged reporter DNA [3]: stimulation of enhanced DNA repair after irradiation | cell viability / protection from radiation injury ([5]; P<0.001): protect normal epithelial cells from radiation injury | cell viability / protection from radiation injury ([5]; P<0.001, listed as ERB): significantly different from control | cell survival post-radiation (radiation mitigation) [6]: mitigates these effects in HUVEC cells | oral bioavailability [10]: notable oral bioavailability | lethality and survival after TBI (C57/BL6 mice): somewhat less efficacious as a radiation mitigator

O=c1c(-c2ccc(O)cc2)coc2cc(O)cc(O)c12 [Genistein]
survival of irradiated mice [11]: increased survival without other significant toxicity

CCCc1c(-c2ccc(O)cc2)nn(-c2ccc(O)cc2)c1-c1ccc(O)cc1 [PPT, Propylpryazoletriol]
radiation-induced apoptosis (lung cells): showed efficacy in suppressing radiation-induced apoptosis | MDM2 levels [8]: stimulate MDM2 levels | ERα agonism (ERα): potent ERα agonist | ATM phosphorylation at serine 1981 (nuclear clustering of PS-ATM) after irradiation [9]: not

Reference: patent publication US20150018398A1, “METHODS OF USING ESTROGEN RECEPTOR-BETA LIGANDS AS RADIATION MITIGATORS” (The Regents of the University of California, priority 2013, published 2015)
